According to ChEMBL document CHEMBL1201862, “PubChem BioAssay data set” (2004):
Active and inactive are the calls of the source.

Assays:
[1] = loss of viability in HepG2 cells – cell-based, CellTiter-Glo, cherry-picked, cytotoxicity control for Shn3 inhibitor project, dose response (AID 624134); type: functional
[2] = HEK-293T viability loss after treatment – luminescence, T-cell screen hits, cytotoxicity control for TCR NF-kB inhibitor project, dose response (AID 489026); type: functional, cell-based;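 note: cells exposed to compound about 14 hours before the viability readout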
INS1 = experiment: INS-1E survival protection against cytokine death – cell-based, luminescence, retest, dose response (AID 449756); type: functional; conditions: Rattus norvegicus;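 note: cell death triggered by IL-1 beta plus TNF-alpha plus IFN-gamma mixture; protective hits raise ATP signal compared with cytokine alone wells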
[3] = reduction of Shn3 3'UTR-driven luciferase in osteoblasts – cell-based, Clone20 osteoblasts, firefly luciferase, cherry-picked, dose response (AID 624132); type: functional;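 note: firefly luciferase luminescence from reporter carrying the Shn3 3'UTR in osteoblasts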
Cytochrome P450 1A2 = target: T1, Cytochrome P450 1A2 (Homo sapiens, UniProt P05177);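 note: PubChem cytochrome P450 panel assay, CYP1A2 panel member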
T1 sequence (P05177 whole entry): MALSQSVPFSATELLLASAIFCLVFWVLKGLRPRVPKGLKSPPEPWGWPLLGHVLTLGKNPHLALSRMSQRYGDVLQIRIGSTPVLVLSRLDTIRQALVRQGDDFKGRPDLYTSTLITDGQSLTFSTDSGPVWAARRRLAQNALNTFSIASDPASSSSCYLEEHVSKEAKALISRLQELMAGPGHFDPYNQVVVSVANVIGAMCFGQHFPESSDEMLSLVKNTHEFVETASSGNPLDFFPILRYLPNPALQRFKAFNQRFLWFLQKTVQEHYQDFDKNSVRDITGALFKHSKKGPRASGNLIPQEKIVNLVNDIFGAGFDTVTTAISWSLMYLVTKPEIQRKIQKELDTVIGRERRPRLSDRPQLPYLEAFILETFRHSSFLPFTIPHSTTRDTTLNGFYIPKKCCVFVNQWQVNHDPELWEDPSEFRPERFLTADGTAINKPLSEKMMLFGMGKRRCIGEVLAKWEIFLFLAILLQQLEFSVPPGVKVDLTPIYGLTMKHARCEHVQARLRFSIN

[4] = non-specific 3'UTR reporter inhibition in Clone20-Shn3RL – cell-based, Renilla luciferase, cherry-picked, counter-screen for Shn3 inhibitor project, dose response (AID 624133); type: functional
[5] = target: T2, Long-chain-fatty-acid--AMP ligase FadD28 (Mycobacterium tuberculosis, UniProt P9WQ59); experiment: Fluorescence polarization aasay to screen for inhibitors that compete for the binding of FadD28 to a bisubstrate Measured in Biochemical System Using Plate Reader - 2147-01_Inhibitor_Dose_CherryPick_Activity.; type: functional, Mycobacterium tuberculosis H37Rv
T2 sequence (P9WQ59 whole entry): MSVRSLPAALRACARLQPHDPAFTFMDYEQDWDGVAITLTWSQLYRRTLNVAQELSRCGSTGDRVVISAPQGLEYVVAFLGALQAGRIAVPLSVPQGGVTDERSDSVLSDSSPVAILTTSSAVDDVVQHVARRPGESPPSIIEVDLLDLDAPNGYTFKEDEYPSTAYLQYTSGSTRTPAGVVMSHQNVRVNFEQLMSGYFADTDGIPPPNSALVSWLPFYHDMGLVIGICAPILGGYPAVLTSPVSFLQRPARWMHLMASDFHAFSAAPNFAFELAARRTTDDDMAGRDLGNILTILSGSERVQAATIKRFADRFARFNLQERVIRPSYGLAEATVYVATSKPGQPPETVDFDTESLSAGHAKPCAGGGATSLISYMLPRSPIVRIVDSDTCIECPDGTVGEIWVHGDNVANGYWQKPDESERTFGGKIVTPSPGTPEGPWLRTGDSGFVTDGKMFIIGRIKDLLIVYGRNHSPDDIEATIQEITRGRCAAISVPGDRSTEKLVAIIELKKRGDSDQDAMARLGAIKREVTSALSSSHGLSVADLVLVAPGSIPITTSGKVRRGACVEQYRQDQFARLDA

[6] = target: Dual specificity tyrosine-phosphorylation-regulated kinase 1A (Rattus norvegicus, UniProt Q63470); type: biochemical, Homo sapiens
[7] = P. falciparum Dd2 growth inhibitors, dose response, SYBR Green, cherry-picked samples (AID 1159567); type: functional, cell-based
[8] = toxicity to human hepatoma HepG2 cells – cell-based, cherry-picked samples, cytotoxicity control, dose response (AID 1159577); type: functional
[9] = target: T3, DNA repair protein RAD52 homolog (Homo sapiens, UniProt P43351); type: functional, biochemical
T3 sequence (P43351 whole entry): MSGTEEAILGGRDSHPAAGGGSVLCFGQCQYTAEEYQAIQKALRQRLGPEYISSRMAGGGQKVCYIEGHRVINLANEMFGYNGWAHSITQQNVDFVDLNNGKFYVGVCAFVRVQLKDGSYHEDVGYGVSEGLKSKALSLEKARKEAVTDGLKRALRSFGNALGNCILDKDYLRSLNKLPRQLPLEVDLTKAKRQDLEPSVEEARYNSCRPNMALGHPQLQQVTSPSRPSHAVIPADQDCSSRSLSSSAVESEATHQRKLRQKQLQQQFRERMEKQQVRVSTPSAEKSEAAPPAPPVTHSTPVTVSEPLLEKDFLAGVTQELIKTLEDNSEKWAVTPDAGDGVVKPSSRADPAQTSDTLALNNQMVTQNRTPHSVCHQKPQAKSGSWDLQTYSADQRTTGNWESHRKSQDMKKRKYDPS

Paired box protein Pax-8 = Paired box protein Pax-8 (Homo sapiens, UniProt Q06710); experiment: PAX8 transcriptional activity inhibition in RMG-I – RMG-I cells, luciferase, cherry-pick, dose response (AID 687027); type: functional, cell-based;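 note: luciferase reporter driven by Pax8 target thyroperoxidase promoter measured by SteadyGlo luminescence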
[10] = blockers of HIV-1 ZM109 envelope-driven cell-cell fusion – HeLa effector, CEM target cells, luciferase, cherry-pick, dose response (AID 652058); type: functional, cell-based;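 note: luciferase signal from HIV-1 Env mediated cell-cell fusion of effector and target cells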
[11] = HIV-1 AD8 envelope cell-cell fusion blockers – cherry-pick, dose response (AID 652062); type: functional, cell-based;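 note: luciferase signal from cell-cell fusion driven by HIV-1 clade B AD8 Env; potency is for inhibitors of fusion seen as a drop in luminescence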
[12] = blockers of HIV-1 envelope-mediated cell-cell fusion – cherry-pick, dose response (AID 652057); type: functional, cell-based
[13] = off-target signal loss in HeLa-CEM21 co-culture – HeLa F-luc CTL cells, cherry-picked, counter-screen for HIV-1 Env fusion inhibitor project, dose response (AID 652040); type: functional, cell-based;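 note: potency for signal decrease marking cytotoxic or nonspecific inhibition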
Vero = experiment: cells; type: functional; conditions: Chlorocebus sabaeus

Paired box protein Pax-8, sequence (Q06710 whole entry, the tested form may be a part): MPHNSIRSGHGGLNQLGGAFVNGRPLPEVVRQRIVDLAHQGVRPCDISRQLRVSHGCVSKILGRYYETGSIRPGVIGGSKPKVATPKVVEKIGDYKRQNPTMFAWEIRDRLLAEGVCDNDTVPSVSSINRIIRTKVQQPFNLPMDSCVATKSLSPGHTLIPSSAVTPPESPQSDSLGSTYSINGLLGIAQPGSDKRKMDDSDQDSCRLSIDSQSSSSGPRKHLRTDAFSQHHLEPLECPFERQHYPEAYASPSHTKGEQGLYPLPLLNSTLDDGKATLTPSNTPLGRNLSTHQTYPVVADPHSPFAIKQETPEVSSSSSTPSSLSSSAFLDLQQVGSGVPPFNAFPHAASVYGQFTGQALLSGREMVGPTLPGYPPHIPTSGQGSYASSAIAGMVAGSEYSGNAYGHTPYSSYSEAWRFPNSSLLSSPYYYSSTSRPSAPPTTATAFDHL

For `CC(C)Cn1c(N)c(C(=O)CSc2ccc3c(c2)OCCO3)c(=O)n(C)c1=O`, the AC50 [1] was 1.74 µM (active), the IC50 [2] was > 80 µM (inactive) and the AC50 (INS1) was 2.98 µM (active). For the same molecule, the AC50 [3] was 0.674 µM (active), the AC50 (Cytochrome P450 1A2) was 31.6 µM (inconclusive) and the AC50 [4] was 1.57 µM (active).

With `COc1ccc(C(=O)Cn2c(=O)oc3ccc(C)cc32)cc1` the AC50 [5] was 36.7 µM (active).

With `O=C1/C(=C/c2ccc3c(c2)OCO3)Oc2cc(OCC(=O)N3CC(O)C[C@H]3C(=O)O)ccc21` (stereo not given in full) the AC50 [6] was 3.56 µM (active).

With `O=C(C1CCCC1)N1C[C@@H]2N[C@H](C1)[C@@H]2c1ccc(/C=C/c2ccccc2)cc1` the AC50 [7] was 4.23 µM (active) and the AC50 [8] was 7.79 µM (active).

For `Cc1cc(N2CCN(C)CC2)nc2ccc(NC(S)=NCc3cccs3)cc12`, the AC50 [9] was 17 µM (active).

With `COc1ccc(CCNc2cc(N3CCN(C(=O)c4ccccc4F)CC3)ccc2[N+](=O)[O-])cc1OC` the AC50 [1] was 0.845 µM (active), the IC50 [2] was > 80 µM (inactive) and the AC50 [3] was 1.26 µM (active). For the same molecule, the AC50 [4] was 0.811 µM (active).

For `Cc1cc2nc(NC(=N)N)nc(C)c2cc1C`, the AC50 [9] was 3.41 µM (active).

With `C[C@@H]1CN([C@@H](C)CO)C(=O)Cc2cc(NC(=O)Nc3ccc(F)cc3)ccc2O[C@H]1CN(C)CC1CCCCC1` the AC50 [7] was 7.86 µM (active), the AC50 (Paired box protein Pax-8) was 20.4 µM (active) and the AC50 [8] was 10.9 µM (active).

In the case of `CC[C@@]1(C(=O)OC)N[C@H](CN(C)S(=O)(=O)c2ccc(-c3ccccc3)cc2)[C@@H]2C(=O)N(Cc3ccccc3)C(=O)[C@@H]21`, the AC50 [10] is reported as 2.28 µM (active), the AC50 [11] is reported as 2.54 µM (active) and the AC50 [12] is reported as 2.09 µM (active). For the same molecule, the AC50 [13] was 2.61 µM (active).

In the case of `CCCCCCNC(=O)O[C@H]1Cn2c(=O)ccc(=O)n2[C@@H]2CN(S(=O)(=O)c3ccc(C)cc3)C[C@]12O`, the AC50 [1] is reported as 19.1 µM (active), the AC50 [3] is reported as 14.1 µM (active) and the CC50 (Vero) is reported as 24 µM (active). For the same molecule, the AC50 [4] was 31.5 µM (active).

For `COc1ccc(NS(=O)(=O)c2cc(NC(=O)COc3ccccc3)ccc2N2CCOCC2)cc1`, the AC50 [5] was > 100 µM (inactive).

For `Cc1cccc(CSCCNC(=O)c2ccc(N(C)S(=O)(=O)c3ccccc3)cc2)c1`, the AC50 [5] was > 100 µM (inactive).

With `Cc1ccc2[nH]c(/C(C#N)=C\c3cc(O)ccc3[N+](=O)[O-])nc2c1` the AC50 [6] was 1.82 µM (active).
